Laboratory results as given in ChEMBL document CHEMBL3351305, “Structure-based design of a novel series of azetidine inhibitors of the hepatitis C virus NS3/4A serine protease” (Bioorg Med Chem Lett, 2014).
Active and inactive are the calls of the source. The calls are words filed in the database; no cut-off is given here.

Experiments:
[1] = target: Hepatitis C virus serine protease, NS3/NS4A (Hepatitis C virus, UniProt A3EZI9+D2K2A8); assay: Inhibition of full length Hepatitis C virus genotype 1b Con1 NS3/4A by FRET assay; parameters: species or system Hepatitis C virus (isolate Con1)
Hepatitis C virus = assay: Antiviral activity against Hepatitis C virus genotype 1b Con1 infected in human Huh7 cells assessed as inhibition of NS4A expression by ELISA; format: functional, cell-based, Hepacivirus hominis; conditions: genotype 1b Con1, Huh-7
[2] = tested on: Hepatitis C virus serine protease, NS3/NS4A (Hepatitis C virus), D2K2A8+A3EZI9 [A156S]; assay: Inhibition of Hepatitis C virus genotype 1b Con1 NS3/4A A156S mutant by FRET assay; conditions: Hepatitis C virus (isolate Con1)
[3] = Inhibition of human leukocyte elastase
[4] = Clearance in rat liver microsomes assessed per mg protein; format: ADME; conditions: read-out: CLH
[5] = Clearance in cynomolgus monkey liver microsomes assessed per mg protein; format: ADME, Macaca fascicularis; conditions: read-out: CLH
[6] = Clearance in human liver microsomes assessed per mg protein; format: ADME; conditions: read-out: CLH
[7] = Half life in rat liver microsomes; format: ADME
[8] = Half life in cynomolgus monkey liver microsomes; format: ADME, Macaca fascicularis
[9] = Half life in human liver microsomes; format: ADME
[10] = Selectivity index, ratio of CC50 for human Huh7 cells to EC50 for Hepatitis C virus genotype 1b Con1; format: toxicity, cell-based, Huh-7; conditions: read-out: Ratio CC50/EC50

Chain of Hepatitis C virus serine protease, NS3/NS4A (D2K2A8 whole entry): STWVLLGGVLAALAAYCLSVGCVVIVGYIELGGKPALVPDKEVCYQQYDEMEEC
Chain of Hepatitis C virus serine protease, NS3/NS4A (A3EZI9 whole entry): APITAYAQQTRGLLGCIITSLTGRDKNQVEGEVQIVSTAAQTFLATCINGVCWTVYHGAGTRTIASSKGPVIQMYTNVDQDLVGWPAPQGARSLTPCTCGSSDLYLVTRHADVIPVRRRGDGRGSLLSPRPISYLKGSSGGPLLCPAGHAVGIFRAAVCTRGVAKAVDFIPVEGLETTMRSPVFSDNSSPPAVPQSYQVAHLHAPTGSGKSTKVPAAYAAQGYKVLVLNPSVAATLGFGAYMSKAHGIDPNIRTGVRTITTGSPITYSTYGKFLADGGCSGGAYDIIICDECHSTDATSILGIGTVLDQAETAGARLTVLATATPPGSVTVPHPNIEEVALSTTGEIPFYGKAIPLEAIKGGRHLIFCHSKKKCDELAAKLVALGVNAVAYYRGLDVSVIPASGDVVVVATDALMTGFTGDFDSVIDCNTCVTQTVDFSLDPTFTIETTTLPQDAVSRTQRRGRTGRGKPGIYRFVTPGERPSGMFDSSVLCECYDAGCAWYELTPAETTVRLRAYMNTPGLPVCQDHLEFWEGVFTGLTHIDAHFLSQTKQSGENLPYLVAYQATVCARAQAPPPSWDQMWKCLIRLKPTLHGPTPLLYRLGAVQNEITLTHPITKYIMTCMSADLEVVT

SMILES	IC50 [1] [nM]	EC50 (Hepatitis C virus) [nM]	also measured
COc1ccc2c(OC[C@@H]3C[C@H]4C(=O)N(C)CCCC/C=C\[C@H]5C[C@]5(C(=O)NS(=O)(=O)C5(C)CC5)NC(=O)N34)cc(-c3nc(C(C)C)cs3)nc2c1F	16.8	872	inhibition [2]: inactive
COc1ccc2c(OC[C@@H]3C[C@H]4C(=O)N(C)CCCC/C=C\[C@H]5C[C@]5(C(=O)NS(=O)(=O)C5CC5)NC(=O)N34)cc(-c3nc(C(C)C)cs3)nc2c1Cl	< 1000	< 750	
COc1ccc2c(OC[C@H]3C[C@@H]4C(=O)N[C@@]5(C(=O)NS(=O)(=O)C6CC6)C[C@@H]5/C=C\CCCCN(C)C(=O)N34)cc(-c3ccccc3)nc2c1	278		
CCC[C@H](NC(=O)[C@@H]1[C@H]2CCC[C@H]2CN1C(=O)[C@@H](NC(=O)[C@@H](NC(=O)c1cnccn1)C1CCCCC1)C(C)(C)C)C(=O)C(=O)NC1CC1 [TELAPREVIR]			inhibition [2]: inactive; IC50 [3]: 600 nM
COc1ccc2c(OC[C@@H]3C[C@H]4C(=O)N[C@@]5(C(=O)NS(=O)(=O)C6CC6)C[C@@H]5/C=C\CCCCN(C)C(=O)N34)cc(-c3ccccc3)nc2c1	2400		
COc1ccc2c(OC[C@@H]3C[C@H]4C(=O)N(C)CCCC/C=C\[C@H]5C[C@]5(C(=O)NS(=O)(=O)C5CC5)NC(=O)N34)cc(-c3ccccc3)nc2c1	45	1860	
COc1ccc2c(OC[C@@H]3C[C@H]4C(=O)N(C)CCCC/C=C\[C@H]5C[C@]5(C(=O)NS(=O)(=O)C5CC5)NC(=O)N34)cc(-c3nc(C(C)C)cs3)nc2c1C	< 1000	< 750	
CC(C)(C)NC(=O)N[C@H](C(=O)N1C[C@H]2[C@@H]([C@H]1C(=O)NC(CC1CCC1)C(=O)C(N)=O)C2(C)C)C(C)(C)C (some centres not stated)			inhibition [2]: inactive

The remaining compounds from weak to strong by IC50 [1], led by results:

IC50 [1] [nM]	EC50 (Hepatitis C virus) [nM]	SMILES	also measured
6.6	45	COc1ccc2c(OC[C@@H]3C[C@H]4C(=O)N(C)CCCC/C=C\[C@H]5C[C@]5(C(=O)NS(=O)(=O)C5(C)CC5)NC(=O)N34)cc(-c3nc(C(C)C)cs3)nc2c1C	microsomal CLint [4]: > 150 µL/min/mg; microsomal CLint [5]: > 150 µL/min/mg; microsomal CLint [6]: > 150 µL/min/mg; half-life [7]: < 10 min; half-life [8]: < 10 min; half-life [9]: < 10 min
3.5	242	COc1ccc2c(OC[C@H]3C[C@@H]4C(=O)N(C)CCCC/C=C\[C@H]5C[C@]5(C(=O)NS(=O)(=O)C5CC5)NC(=O)N34)cc(-c3ccccc3)nc2c1	
2.1	60	COc1ccc2c(OC[C@@H]3C[C@H]4C(=O)N(C)CCCC/C=C\[C@H]5C[C@]5(C(=O)NS(=O)(=O)C5(C)CC5)NC(=O)N34)cc(-c3nc(C(C)C)cs3)nc2c1Cl	selectivity ratio [10]: > 1500; microsomal CLint [4]: > 150 µL/min/mg; microsomal CLint [5]: > 150 µL/min/mg; microsomal CLint [6]: > 150 µL/min/mg; half-life [7]: < 10 min; half-life [8]: < 10 min; half-life [9]: < 10 min
1.3	412	COc1ccc2c(OC[C@@H]3C[C@H]4C(=O)N(C)CCCC/C=C\[C@H]5C[C@]5(C(=O)NS(=O)(=O)C5(C)CC5)NC(=O)N34)cc(-c3nc(C(C)C)cs3)nc2c1	
0.8	2.8	COc1ccc2c(O[C@@H]3C[C@H]4C(=O)N[C@]5(C(=O)O)C[C@H]5/C=C\CCCCC[C@H](NC(=O)OC5CCCC5)C(=O)N4C3)cc(-c3csc(NC(C)C)n3)nc2c1 [CILUPREVIR]	
